What was measured:
[1] = system: intraocular pressure in alpha-chymotrypsin-induced ocular hypertensive rabbit eyes; experiment: Alpha-chymotrypsin-induced ocular hypertension, maximum intraocular pressure drop; assay type: in vivo, New Zealand White rabbits
Procedure: This is done by the direct injection of the proteolytic enzyme, alpha-chymotrypsin into the posterior chamber of the rabbit eye.
Ocular hypertension is elicited in New Zealand White rabbits (2.0-2.5 kg) by the injection of alpha-chymotrypsin into the posterior chamber as described by Sears and Sears (Am. J. Ophthalmol. 77, 378-383, (1974). Briefly, the animals are pretreated with indomethacin (10 mg/kg i.p.) to prevent the otherwise immediate onset of inflammation. One hour later, the rabbits are anesthetized with a 2 ml intramuscular injection of a 50:50 mixture of xylazine (20 mg/kg) and ketamine (100 mg/kg). The eyes are individually proptosed and treated topically with 50 microliters of 0.5% proparacaine. The anterior chamber is cannulated with a 30-gauge needle attached to a reservoir set at a pressure of 25 mmHg. Then, 0.5 ml of alpha-chymotrypsin (350 units) is injected through the pupil near the limbus and into the posterior chamber using an S-curved, 30-gauge needle. During the injection, the tip of the needle is swept across the posterior chamber to distribute the enzyme. Care is taken to avoid injection of any enzyme into the corneal stroma. Both needles can then be carefully removed to prevent any significant loss of aqueous humor.
The eyes are examined biweekly for corneal lacerations and overt inflammatory responses. […] The intraocular pressures of the operated rabbits are checked approximately four weeks posttreatment. […]. Generally, about 50% of the operated eyes are suitable for study. Intraocular pressure is measured with a standard instrument and the results are expressed in terms of maximum (over measurment time) percentage drop of intraocular pressure.

carbonic anhydrase B = carbonic anhydrase B (Homo sapiens, UniProt P00915); experiment: Carbonic anhydrase esterase inhibition (spectrophotometric rate of hydrolysis of 1 mM p-nitrophenyl acetate); assay type: biochemical; conditions: read-out: Carbonic Anhydase Esterase Inhibition IC50
Procedure: It is generally known that carbonic anhydrase inhibitors are useful for the treatment of glaucoma. The carbonic anhydrase inhibitory activities have been evaluated by spectrophotometrically measuring the rate of hydrolysis of 1 mM p-nitrophenyl acetate catalyzed by carbonic anhydrase B according to the procedure described in J. Armstrong et al., J. Biol. Chem., Vol 241, No. 21, pp 5137-5149 (1966).

Chain of carbonic anhydrase B (P00915 2-261 limits assumed): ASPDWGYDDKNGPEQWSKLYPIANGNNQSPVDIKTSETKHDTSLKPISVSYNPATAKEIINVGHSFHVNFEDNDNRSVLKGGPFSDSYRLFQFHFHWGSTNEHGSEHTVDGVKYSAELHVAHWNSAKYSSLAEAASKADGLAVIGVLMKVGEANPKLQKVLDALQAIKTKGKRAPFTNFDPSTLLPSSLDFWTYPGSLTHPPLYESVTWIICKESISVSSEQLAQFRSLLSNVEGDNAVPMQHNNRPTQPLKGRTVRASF

Compound	Maximum Intraocular Pressure Drop ([1]; at 0.3%)	IC50 (carbonic anhydrase B)	Maximum Intraocular Pressure Drop ([1]; at 3%)	Maximum Intraocular Pressure Drop ([1]; at 0.5%)	Maximum Intraocular Pressure Drop ([1]; at 1.0%)
NS(=O)(=O)c1nc(-c2ccccc2Cl)ns1 [3-(2-Chlorophenyl)-1,2,4-thiadiazole-5-sulfonamide]	24.8%	270 nM	–	–	–
COC(=NS(=O)(=O)c1nc(-c2ccccc2Cl)ns1)C(C)C [N-(1-Methoxy-2-methylpropylidene)-3-(2-chlorophenyl)-1,2,4-thiadiazole-5-sulfonamide]	13%	400 nM	26%	–	–
CC(C)(C)NC[C@H](O)COc1nsnc1N1CCOCC1 [Timolol, reference compound]	–	–	–	27.5%	28.0%

From patent publication US4985450A, “Arylthiadiazolylsulfonamides and derivatives” (priority 1989, dated 1991)
